Source: ChEMBL document CHEMBL1128712, “Increasing binding constants of ligands to carbonic anhydrase by using "greasy tails"” (J Med Chem, 1995)

Assays:
[1] = Partition coefficient (logD7.5); type: physicochemical; details: octanol/water, pH 7.5
[2] = molecular target: Carbonic anhydrase 2 (Bos taurus) (UniProt P00921); experiment: Evaluation of binding constant to bovine carbonic anhydrase II, measured by fluorescence in 20 mM phosphate buffer (pH=7.5)
[3] = Evaluation of ionization constant between octanol and 20 mM phosphate buffer (pH =7.5); type: physicochemical; details: octanol/20 mM phosphate buffer
[4] = molecular target: Carbonic anhydrase 2 (Bos taurus) (UniProt P00921); experiment: Compound was tested for the binding affinity towards Carbonic anhydrase II by competitive fluorescence assay with dansylamide

Chain of Carbonic anhydrase 2 (Bos taurus) (P00921 2-260 limits assumed): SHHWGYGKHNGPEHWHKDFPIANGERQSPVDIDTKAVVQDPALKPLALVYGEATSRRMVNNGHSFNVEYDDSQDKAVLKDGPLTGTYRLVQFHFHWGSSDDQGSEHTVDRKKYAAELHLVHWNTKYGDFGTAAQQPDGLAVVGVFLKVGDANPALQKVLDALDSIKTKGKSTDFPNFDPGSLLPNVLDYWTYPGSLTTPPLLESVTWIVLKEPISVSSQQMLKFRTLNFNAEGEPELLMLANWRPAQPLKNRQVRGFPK

For NS(=O)(=O)c1ccc(CNC(=O)CC2CCCC2)cc1, the logD [1] was 1.08 and the Kb [2] was 7.6e+06 M⁻¹.
In the case of CCCCCCC(=O)NCc1ccc(S(N)(=O)=O)cc1, the logD [1] is reported as 1.46 and the Kb [2] is reported as 5.7e+06 M⁻¹.
Work on NS(=O)(=O)c1ccc(C(=O)NCC(F)(F)C(F)(F)C(F)(F)F)cc1 yielded a logD [1] of 2.04 and a Kb [2] of 1.1e+09 M⁻¹.
With CCCC(C)CC(=O)NCc1ccc(S(N)(=O)=O)cc1 (centres undefined) the logD [1] was 1.32 and the Kb [2] was 5.7e+06 M⁻¹.
Compound NS(=O)(=O)c1ccc(C(=O)NCC(F)(F)F)cc1 has a logD [1] of 0.845 and a Kb [2] of 4.7e+07 M⁻¹.
For CCNC(=O)c1ccc(S(N)(=O)=O)cc1, the logD [1] was 0.176 and the Kb [2] was 5.9e+06 M⁻¹.
NS(=O)(=O)c1ccc(CNC(=O)CCC2CCCC2)cc1 showed a logD [1] of 1.63 and a Kb [2] of 1.2e+07 M⁻¹.
For CCC(CC)C(=O)NCc1ccc(S(N)(=O)=O)cc1, the logD [1] was 1 and the Kb [2] was 2.9e+06 M⁻¹.
In the case of NS(=O)(=O)c1ccc(CNC(=O)C2CCCCCC2)cc1, the logD [1] is reported as 1.49 and the Kb [2] is reported as 1e+07 M⁻¹.
Work on NS(=O)(=O)c1ccc(CNC(=O)C(F)(F)C(F)(F)F)cc1 yielded a pKa [3] of 9.8.
In the case of CN(C)C(=O)c1ccc(S(N)(=O)=O)cc1, the logD [1] is reported as 0.146 and the Kb [2] is reported as 1.1e+07 M⁻¹.
Compound CCCNC(=O)c1ccc(S(N)(=O)=O)cc1 has a logD [1] of 0.531 and a Kb [2] of 2.6e+07 M⁻¹.
In the case of NS(=O)(=O)c1ccc(CNC(=O)C2CCCC2)cc1, the logD [1] is reported as 0.778 and the Kb [2] is reported as 6e+06 M⁻¹.
Work on CCCN(CCC)C(=O)c1ccc(S(N)(=O)=O)cc1 yielded a logD [1] of 2.08 and a Kb [2] of 1.9e+07 M⁻¹.
NS(=O)(=O)c1ccc(CNC(=O)C2CCCCC2)cc1 gave a logD [1] of 1.08 and a Kb [2] of 7.6e+06 M⁻¹.
Compound NS(=O)(=O)c1ccc(C(=O)NCC(F)(F)C(F)(F)F)cc1 has a logD [1] of 1.52 and a Kb [2] of 1.8e+08 M⁻¹.
CC(C)(C)CC(=O)NCc1ccc(S(N)(=O)=O)cc1 gave a logD [1] of 1.04 and a Kb [2] of 7.1e+06 M⁻¹.
In the case of CCCCCCCC(=O)NCc1ccc(S(N)(=O)=O)cc1, the Kb [4] is reported as 1.2e+07 M⁻¹ and the logD [1] is reported as 1.84.
CC1(C)C(C(=O)NCc2ccc(S(N)(=O)=O)cc2)C1(C)C showed a logD [1] of 1.57 and a Kb [2] of 1.1e+07 M⁻¹.
CC(C)CCC(=O)NCc1ccc(S(N)(=O)=O)cc1 gave a logD [1] of 1.04 and a Kb [2] of 4.8e+06 M⁻¹.
CCCCCCNC(=O)c1ccc(S(N)(=O)=O)cc1 showed a logD [1] of 2.21 and a Kb [2] of 1.3e+08 M⁻¹.
NS(=O)(=O)c1ccc(CNC(=O)CC2CCCCC2)cc1 showed a logD [1] of 1.62 and a Kb [2] of 1.3e+07 M⁻¹.
In the case of CCN(CC)C(=O)c1ccc(S(N)(=O)=O)cc1, the logD [1] is reported as 0.929 and the Kb [2] is reported as 1.7e+07 M⁻¹.
CCCCC(CC)C(=O)NCc1ccc(S(N)(=O)=O)cc1 (centres undefined) showed a logD [1] of 1.84 and a Kb [2] of 7.1e+06 M⁻¹.
With CCCCNC(=O)c1ccc(S(N)(=O)=O)cc1 the logD [1] was 1.11 and the Kb [2] was 6.3e+07 M⁻¹.
Compound CCCCCC(=O)NCc1ccc(S(N)(=O)=O)cc1 has a logD [1] of 1.23 and a Kb [2] of 5.1e+06 M⁻¹.
In the case of NS(=O)(=O)c1ccc(CNC(=O)C(F)(F)F)cc1, the pKa [3] is reported as 10.1.
CCC(=O)NCc1ccc(S(N)(=O)=O)cc1 showed a pKa [3] of 9.9.
Work on CC(=O)NCc1ccc(S(N)(=O)=O)cc1 yielded a pKa [3] of 10.2.
